# According to patent US6875766B2, “Use of riboflavin and flavin derivatives as chitinase inhibitors” (Bayer AG, priority 2000, dated 2005):
# Columns and labels:
# [1] = target: Lucilia cuprina chitinase; experiment: Chitinase inhibitory activity (IC50) against Lucilia cuprina chitinase; assay type: biochemical
# Protocol: (§1) The chitinase inhibitory activity was determined as already described [Omura, S., Arai, N., Yamaguchi, Y., Masuma, R., Iwai, Y., Namikoshi, M., Turberg, A., Kölbl, H., Shiomi, K., J. Antibiot., 53, 603-608 (2000)].
# [2] = test system: Streptomyces griseus chitinase (Sigma); experiment: Chitinase inhibitory activity against Streptomyces griseus chitinase; assay type: biochemical; settings: at 100 μM (37° C.)
# Protocol: as §1
# [3] = test system: Vibrio alginolyticus chitinase (Kyowa Medex); experiment: Chitinase inhibitory activity against Vibrio alginolyticus chitinase; assay type: biochemical; settings: at 100 μM (37° C.)
# Protocol: as §1
# [4] = test system: Lucilia cuprina endochitinase; experiment: Chitinase test with soluble extracts from Lucilia cuprina puppae; assay type: biochemical; settings: cytosolic extract of late pupae, MUF-triacetylchitotriose substrate
# Protocol: Chitinase test with soluble extracts from Lucilia cuprina puppae
# Test animals: Cytosol of Lucilia cuprina
# The substances, which are dissolved in DMSO, are provided on 384-well microtiter plates in a concentration of 2 mM, the first four columns being empty. The substances are diluted 1:40 with 100 mM NPP pH 7.0 (50 μM). 5 μl of each of these dilutions are transferred to a 384-well test plate, starting with column 5. Into the first two columns there are pipetted in each case as negative control, into the third and fourth column in each case 5 μl of 5×10^-6 M allosamidin in 2.5% DMSO in 100 mM NPP pH 7.0 5 μl 2.5% DMSO in 100 mM NPP pH 7.0 as positive control.
# The substances are incubated for 20 minutes at room temperature with 2.5 μg of cytosolic extract of late Lucilia cuprina puppae in 10 μl of 100 mM sodium phosphate buffer pH 7.0 and 10 μl of 100 μM methylumbelliferyl (MUF-triacetylchitotriose). The reaction is quenched by addition of 25 μl of 0.5 M glycine buffer 2 M sodium hydroxide, pH 10.4. The inhibition is determined by measuring the relative fluorescence at an excitation of 360±40 nm and an emission of 460±40 nm. The test substances are evaluated in comparison with the inhibition of the enzyme by allosamidin. The inhibition of the release of MUF is a measure for the efficacy of the inhibitor. In subsequent tests, concentration series in the range of from 100 nM to 200 μM are tested, and the release of MUF is measured every 2 minutes before the reaction is quenched.
# Compounds which lead to more than 50% inhibition of chitinase at maximum reaction velocity at 100 μM are assessed as effective.
# [5] = test system: Periplaneta americana, third instar; experiment: Injection test with Periplaneta larvae; assay type: in vivo; settings: 2 μg injected per larva; observed over 23 days
# Protocol: Injection test with Periplaneta larvae
# Test animals: Periplaneta americana, third instar
# The compounds are prepared in aqueous solution (0.1 N acetic acid) and diluted as required. Using a 10 μl Hamilton syringe, 1 μl of the 20 or 2 μg were injected behind the 3rd pair of legs closely underneath the abdominal cavity of the cockroach larvae. Solvent (0.1 N acetic acid) was applied as control and 10 μg allosamidine as positive control. Batches of twenty cockroach larvae were treated per concentration and compound. On day 1, the control mortality and the initial mortality caused essentially by artificial effects during the injection were determined. If this initial mortality was less than 50%, the experiment was continued. The cockroach larvae were placed on filter paper in standard Petri dishes (9.5 cm Ø), and a quarter of a wafer was added. The ecdysis rate of the control animals and of the treated cockroach larvae was observed over a period of 23 days, and larval mortality and inhibition of ecdysis were recorded after days 1, 5 and 23. The efficacy is calculated using the following formula. [formula]
smiles,measurement,setting,value
"Cc1cc2nc3c(=O)[nH]c(=O)nc-3n(C[C@H](O)[C@H](O)[C@H](O)CO)c2cc1C [compound 1, riboflavin]",IC50,[1]; 20° C.,380 nM
same,IC50,[1]; 37° C.,2100 nM
same,inhibition of the Streptomyces griseus chitinase,[2],no inhibition
same,inhibition of the Vibrio alginolyticus chitinase,[3],no inhibition
same,inhibition of the Lucilia cuprina endochitinase,[4]; 10 μM,>>50%
same,inhibition of the Lucilia cuprina endochitinase,[4]; 100 μM,>>50%
same,inhibition of the Lucilia cuprina endochitinase,[4]; 200 μM,>>>50%
same,mortality against Periplaneta americana third instars,[5],More than 50%
